ChEMBL document CHEMBL1130506, “Inhibition of the her2 tyrosine kinase and characterization of a hydrophobic site near the nucleotide binding domain” (Bioorg Med Chem Lett, 1997)
pIC50: −log10 of the molar value.

The compounds below were run against Receptor tyrosine-protein kinase erbB-2 (Homo sapiens, UniProt P04626) (assay: Inhibition of autophosphorylation of HER-2 expressed in NIH3T3 cell lines).
Assay type: cell-based

Receptor tyrosine-protein kinase erbB-2, sequence (P04626 whole entry): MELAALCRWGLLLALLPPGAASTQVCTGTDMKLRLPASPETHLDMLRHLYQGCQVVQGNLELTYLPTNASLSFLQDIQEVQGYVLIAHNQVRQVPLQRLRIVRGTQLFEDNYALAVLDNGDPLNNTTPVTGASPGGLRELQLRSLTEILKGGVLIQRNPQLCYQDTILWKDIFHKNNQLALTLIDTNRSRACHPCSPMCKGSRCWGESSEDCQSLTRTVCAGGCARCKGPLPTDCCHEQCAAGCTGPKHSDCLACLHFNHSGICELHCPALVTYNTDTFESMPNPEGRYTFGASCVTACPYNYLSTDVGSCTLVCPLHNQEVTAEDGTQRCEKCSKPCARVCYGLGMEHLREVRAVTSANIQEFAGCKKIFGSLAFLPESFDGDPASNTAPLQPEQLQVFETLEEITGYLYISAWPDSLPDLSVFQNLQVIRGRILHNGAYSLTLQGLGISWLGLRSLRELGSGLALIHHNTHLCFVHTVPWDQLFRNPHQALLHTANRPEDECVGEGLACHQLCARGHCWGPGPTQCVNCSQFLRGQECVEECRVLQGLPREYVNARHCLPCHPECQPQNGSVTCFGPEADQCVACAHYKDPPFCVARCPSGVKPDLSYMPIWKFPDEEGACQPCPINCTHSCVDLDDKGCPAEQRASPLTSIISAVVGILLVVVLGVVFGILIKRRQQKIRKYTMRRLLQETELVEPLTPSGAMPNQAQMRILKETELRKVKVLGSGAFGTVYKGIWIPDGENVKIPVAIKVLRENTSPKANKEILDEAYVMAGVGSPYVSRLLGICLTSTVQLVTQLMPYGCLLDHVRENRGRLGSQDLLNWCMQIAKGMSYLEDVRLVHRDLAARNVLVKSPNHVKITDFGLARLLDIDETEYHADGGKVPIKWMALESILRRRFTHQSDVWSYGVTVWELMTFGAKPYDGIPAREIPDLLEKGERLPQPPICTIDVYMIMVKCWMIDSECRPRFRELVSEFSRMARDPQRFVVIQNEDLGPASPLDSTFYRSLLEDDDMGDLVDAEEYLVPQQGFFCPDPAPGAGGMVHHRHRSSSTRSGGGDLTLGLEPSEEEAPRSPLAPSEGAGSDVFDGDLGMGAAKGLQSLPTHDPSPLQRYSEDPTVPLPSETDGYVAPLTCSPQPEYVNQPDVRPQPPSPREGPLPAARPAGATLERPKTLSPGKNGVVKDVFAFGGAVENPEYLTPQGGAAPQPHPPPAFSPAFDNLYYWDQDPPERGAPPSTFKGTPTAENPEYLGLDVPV

`CC(C)O[C@@H]1[C@H](OC(C)C)[C@@H](COC(=O)CCCC(=O)Oc2ccc(/C=C/[N+](=O)[O-])cc2)O[C@H]1n1cnc2c(N)ncnc21` and `O=C(CCCC(=O)Oc1ccc(/C=C/[N+](=O)[O-])cc1)OCc1ccco1` are within 0.2 log units of each other in pIC50: 5.35 for the first, 5.42 for the second.

`O=C(CCCC(=O)Oc1ccc(/C=C/[N+](=O)[O-])cc1)Oc1ccccc1` and `COc1ccc(OC(=O)CCCC(=O)Oc2ccc(/C=C/[N+](=O)[O-])cc2)cc1` are within 0.2 log units of each other in pIC50: 5.36 for the first, 5.18 for the second.
